Results as given in PubChem BioAssay (NCI).
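Compound exposure: 48 hours, 5 concentrations, 96-well plates. The concentration for 50% growth inhibition is given as GI50. TGI: total growth inhibition.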

Legend:
Experiment in all cases: NCI tumour cell line growth inhibition, 48 h
MDA-MB-231 breast = test system: MDA-MB-231 breast
HCC-2998 colon = test system: HCC-2998 colon
OVCAR-4 ovarian = test system: OVCAR-4 ovarian
OVCAR-5 ovarian = test system: OVCAR-5 ovarian
SW-620 colon = test system: SW-620 colon
CCRF-CEM leukemia = test system: CCRF-CEM leukemia
SF-295 CNS = test system: SF-295 CNS
HCT-15 colon = test system: HCT-15 colon
T-47D breast = test system: T-47D breast
M14 melanoma = test system: M14 melanoma
IGROV1 ovarian = test system: IGROV1 ovarian
MALME-3M melanoma = test system: MALME-3M melanoma
EKVX NSCLC = test system: EKVX NSCLC
SK-MEL-2 melanoma = test system: SK-MEL-2 melanoma
LOX IMVI melanoma = test system: LOX IMVI melanoma
NCI-H226 lung = test system: NCI-H226 lung
MCF7 breast = test system: MCF7 breast
A549 NSCLC = test system: A549 NSCLC
SK-MEL-28 melanoma = test system: SK-MEL-28 melanoma
HT29 colon = test system: HT29 colon
HS 578T breast = test system: HS 578T breast
SK-MEL-5 melanoma = test system: SK-MEL-5 melanoma
OVCAR-8 ovarian = test system: OVCAR-8 ovarian
UO-31 renal = test system: UO-31 renal
HCT-116 colon = test system: HCT-116 colon
DU-145 prostate = test system: DU-145 prostate
SF-539 CNS = test system: SF-539 CNS
HL-60(TB) leukemia = test system: HL-60(TB) leukemia
K-562 leukemia = test system: K-562 leukemia
PC-3 prostate = test system: PC-3 prostate
KM12 colon = test system: KM12 colon
SF-268 CNS = test system: SF-268 CNS
MDA-MB-435 = test system: MDA-MB-435
NCI-H460 lung = test system: NCI-H460 lung
NCI-H522 lung = test system: NCI-H522 lung
RPMI-8226 leukemia = test system: RPMI-8226 leukemia
BT-549 breast = test system: BT-549 breast
CAKI-1 renal = test system: CAKI-1 renal
NCI/ADR-RES ovarian = test system: NCI/ADR-RES ovarian
ACHN renal = test system: ACHN renal
SK-OV-3 ovarian = test system: SK-OV-3 ovarian
SN12C renal = test system: SN12C renal
HOP-62 NSCLC = test system: HOP-62 NSCLC
UACC-62 melanoma = test system: UACC-62 melanoma
NCI-H23 lung = test system: NCI-H23 lung
U251 CNS = test system: U251 CNS
SR leukemia = test system: SR leukemia
MOLT-4 leukemia = test system: MOLT-4 leukemia
HOP-92 NSCLC = test system: HOP-92 NSCLC
SNB-19 CNS = test system: SNB-19 CNS
786-0 renal = test system: 786-0 renal
COLO 205 colon = test system: COLO 205 colon
OVCAR-3 ovarian = test system: OVCAR-3 ovarian
SNB-75 CNS = test system: SNB-75 CNS
TK-10 renal = test system: TK-10 renal
RXF 393 renal = test system: RXF 393 renal
UACC-257 melanoma = test system: UACC-257 melanoma

## CS(=O)(=O)Nc1cc(-c2ccc3ncnc(Nc4cccc(Cl)c4)c3c2)cnc1Cl
MDA-MB-231 breast
  GI50: 1.05 µM
  TGI: 5.56 µM
HCC-2998 colon
  GI50: 0.246 µM
  TGI: 1.79 µM
OVCAR-4 ovarian
  GI50: 0.828 µM
  TGI: 9.22 µM
OVCAR-5 ovarian
  GI50: 0.223 µM
  TGI: 13.5 µM
SW-620 colon
  GI50: 0.48 µM
  TGI: 4.87 µM
CCRF-CEM leukemia
  GI50: 0.463 µM
  TGI: 20.7 µM
SF-295 CNS
  GI50: 0.335 µM
  TGI: 2.2 µM
HCT-15 colon
  GI50: 0.296 µM
  TGI: 2.72 µM
T-47D breast
  GI50: 0.0237 µM
  TGI: 0.635 µM
M14 melanoma
  GI50: 0.542 µM
  TGI: 10.6 µM
IGROV1 ovarian
  GI50: 0.0784 µM
  TGI: 0.476 µM
MALME-3M melanoma
  GI50: 0.0985 µM
  TGI: 0.82 µM
EKVX NSCLC
  GI50: 0.416 µM
  TGI: 3.59 µM
SK-MEL-2 melanoma
  GI50: 0.345 µM
  TGI: 2.05 µM
LOX IMVI melanoma
  GI50: 0.33 µM
  TGI: 2.19 µM
NCI-H226 lung
  GI50: 1.1 µM
  TGI: 7.62 µM
MCF7 breast
  GI50: 0.215 µM
  TGI: 13.6 µM
A549 NSCLC
  GI50: 1.11 µM
  TGI: 4.17 µM
SK-MEL-28 melanoma
  GI50: 0.3 µM
  TGI: 4.75 µM
HT29 colon
  GI50: 0.319 µM
  TGI: 5.84 µM
HS 578T breast
  GI50: 0.088 µM
  TGI: 0.782 µM
SK-MEL-5 melanoma
  GI50: 0.35 µM
  TGI: 1.47 µM
OVCAR-8 ovarian
  GI50: 1.24 µM
  TGI: 30.3 µM
UO-31 renal
  GI50: 0.105 µM
  TGI: 1.86 µM
HCT-116 colon
  GI50: 0.664 µM
  TGI: 5.87 µM
DU-145 prostate
  GI50: 0.455 µM
  TGI: 10.3 µM
SF-539 CNS
  GI50: 0.439 µM
  TGI: 3.73 µM
HL-60(TB) leukemia
  GI50: 0.174 µM
  TGI: 17.7 µM
K-562 leukemia
  GI50: 1.36 µM
  TGI: 59.8 µM
PC-3 prostate
  GI50: 0.288 µM
  TGI: 11.5 µM
KM12 colon
  GI50: 1.03 µM
  TGI: 5.11 µM
SF-268 CNS
  GI50: 0.337 µM
  TGI: 4.71 µM
MDA-MB-435
  GI50: 0.418 µM
  TGI: 2.67 µM
NCI-H460 lung
  GI50: 0.642 µM
  TGI: 11.1 µM
NCI-H522 lung
  GI50: 0.391 µM
  TGI: 6.86 µM
RPMI-8226 leukemia
  GI50: 0.378 µM
  TGI: 2.36 µM
BT-549 breast
  GI50: 0.272 µM
  TGI: 3.28 µM
CAKI-1 renal
  GI50: 0.299 µM
  TGI: 7.71 µM
NCI/ADR-RES ovarian
  GI50: 1.19 µM
  TGI: 12 µM
ACHN renal
  GI50: 0.474 µM
  TGI: 46.6 µM
SK-OV-3 ovarian
  GI50: 0.262 µM
  TGI: 1.58 µM
SN12C renal
  GI50: 0.447 µM
  TGI: 51.2 µM
HOP-62 NSCLC
  GI50: 0.22 µM
  TGI: 5.29 µM
UACC-62 melanoma
  GI50: 0.202 µM
  TGI: 1.26 µM
NCI-H23 lung
  GI50: 0.328 µM
  TGI: 10.6 µM
U251 CNS
  GI50: 0.503 µM
  TGI: 2.68 µM
SR leukemia
  GI50: 0.371 µM
  TGI: 4.95 µM
MOLT-4 leukemia
  GI50: 0.235 µM
  TGI: 1.17 µM
HOP-92 NSCLC
  GI50: 0.122 µM
  TGI: 0.96 µM
SNB-19 CNS
  GI50: 0.717 µM
  TGI: 5.05 µM
786-0 renal
  GI50: 0.457 µM
  TGI: 7.01 µM
COLO 205 colon
  GI50: 0.371 µM
  TGI: 1.8 µM
OVCAR-3 ovarian
  GI50: 0.343 µM
  TGI: 2.28 µM

## CC(O)[C@H](NC(=O)N[C@@H](CC(N)=O)c1nc(N2CCNCC2)no1)C(=O)O (stereo not given in full)
MDA-MB-231 breast
  GI50: > 100 µM
  TGI: > 100 µM
HCC-2998 colon
  GI50: > 100 µM
  TGI: > 100 µM
OVCAR-4 ovarian
  GI50: > 100 µM
  TGI: > 100 µM
OVCAR-5 ovarian
  GI50: > 100 µM
  TGI: > 100 µM
SW-620 colon
  GI50: > 100 µM
  TGI: > 100 µM
CCRF-CEM leukemia
  GI50: > 100 µM
  TGI: > 100 µM
SF-295 CNS
  GI50: > 100 µM
  TGI: > 100 µM
HCT-15 colon
  GI50: > 100 µM
  TGI: > 100 µM
T-47D breast
  GI50: > 100 µM
  TGI: > 100 µM
M14 melanoma
  GI50: > 100 µM
  TGI: > 100 µM
SNB-75 CNS
  GI50: > 100 µM
  TGI: > 100 µM
IGROV1 ovarian
  GI50: > 100 µM
  TGI: > 100 µM
MALME-3M melanoma
  GI50: > 100 µM
  TGI: > 100 µM
EKVX NSCLC
  GI50: > 100 µM
  TGI: > 100 µM
SK-MEL-2 melanoma
  GI50: > 100 µM
  TGI: > 100 µM
LOX IMVI melanoma
  GI50: > 100 µM
  TGI: > 100 µM
NCI-H226 lung
  GI50: > 100 µM
  TGI: > 100 µM
MCF7 breast
  GI50: > 100 µM
  TGI: > 100 µM
A549 NSCLC
  GI50: > 100 µM
  TGI: > 100 µM
SK-MEL-28 melanoma
  GI50: > 100 µM
  TGI: > 100 µM
HT29 colon
  GI50: > 100 µM
  TGI: > 100 µM
HS 578T breast
  GI50: > 100 µM
  TGI: > 100 µM
SK-MEL-5 melanoma
  GI50: > 100 µM
  TGI: > 100 µM
OVCAR-8 ovarian
  GI50: > 100 µM
  TGI: > 100 µM
UO-31 renal
  GI50: > 100 µM
  TGI: > 100 µM
HCT-116 colon
  GI50: > 100 µM
  TGI: > 100 µM
DU-145 prostate
  GI50: > 100 µM
  TGI: > 100 µM
SF-539 CNS
  GI50: > 100 µM
  TGI: > 100 µM
HL-60(TB) leukemia
  GI50: > 100 µM
  TGI: > 100 µM
K-562 leukemia
  GI50: > 100 µM
  TGI: > 100 µM
PC-3 prostate
  GI50: > 100 µM
  TGI: > 100 µM
KM12 colon
  GI50: > 100 µM
  TGI: > 100 µM
SF-268 CNS
  GI50: > 100 µM
  TGI: > 100 µM
TK-10 renal
  GI50: > 100 µM
  TGI: > 100 µM
MDA-MB-435
  GI50: > 100 µM
  TGI: > 100 µM
NCI-H460 lung
  GI50: > 100 µM
  TGI: > 100 µM
NCI-H522 lung
  GI50: > 100 µM
  TGI: > 100 µM
RPMI-8226 leukemia
  GI50: > 100 µM
  TGI: > 100 µM
BT-549 breast
  GI50: > 100 µM
  TGI: > 100 µM
CAKI-1 renal
  GI50: > 100 µM
  TGI: > 100 µM
NCI/ADR-RES ovarian
  GI50: > 100 µM
  TGI: > 100 µM
ACHN renal
  GI50: > 100 µM
  TGI: > 100 µM
SK-OV-3 ovarian
  GI50: > 100 µM
  TGI: > 100 µM
SN12C renal
  GI50: > 100 µM
  TGI: > 100 µM
HOP-62 NSCLC
  GI50: > 100 µM
  TGI: > 100 µM
RXF 393 renal
  GI50: > 100 µM
  TGI: > 100 µM
UACC-62 melanoma
  GI50: > 100 µM
  TGI: > 100 µM
NCI-H23 lung
  GI50: > 100 µM
  TGI: > 100 µM
U251 CNS
  GI50: > 100 µM
  TGI: > 100 µM
UACC-257 melanoma
  GI50: > 100 µM
  TGI: > 100 µM
SR leukemia
  GI50: > 100 µM
  TGI: > 100 µM
MOLT-4 leukemia
  GI50: > 100 µM
  TGI: > 100 µM
HOP-92 NSCLC
  GI50: > 100 µM
  TGI: > 100 µM
SNB-19 CNS
  GI50: > 100 µM
  TGI: > 100 µM
786-0 renal
  GI50: > 100 µM
  TGI: > 100 µM
COLO 205 colon
  GI50: > 100 µM
  TGI: > 100 µM
OVCAR-3 ovarian
  GI50: > 100 µM
  TGI: > 100 µM
